{
  "source": "patent US6391904B1",
  "about": "“Iminoguanidine derivatives, preparation method, use as medicines” (Aventis Pharma S.A., priority 1998, dated 2002)",
  "data": [
    {"biological_target": "human αvβ3 receptor (Homo sapiens, UniProt P05106+P06756)", "sequence (P06756 31-889 limits assumed)": "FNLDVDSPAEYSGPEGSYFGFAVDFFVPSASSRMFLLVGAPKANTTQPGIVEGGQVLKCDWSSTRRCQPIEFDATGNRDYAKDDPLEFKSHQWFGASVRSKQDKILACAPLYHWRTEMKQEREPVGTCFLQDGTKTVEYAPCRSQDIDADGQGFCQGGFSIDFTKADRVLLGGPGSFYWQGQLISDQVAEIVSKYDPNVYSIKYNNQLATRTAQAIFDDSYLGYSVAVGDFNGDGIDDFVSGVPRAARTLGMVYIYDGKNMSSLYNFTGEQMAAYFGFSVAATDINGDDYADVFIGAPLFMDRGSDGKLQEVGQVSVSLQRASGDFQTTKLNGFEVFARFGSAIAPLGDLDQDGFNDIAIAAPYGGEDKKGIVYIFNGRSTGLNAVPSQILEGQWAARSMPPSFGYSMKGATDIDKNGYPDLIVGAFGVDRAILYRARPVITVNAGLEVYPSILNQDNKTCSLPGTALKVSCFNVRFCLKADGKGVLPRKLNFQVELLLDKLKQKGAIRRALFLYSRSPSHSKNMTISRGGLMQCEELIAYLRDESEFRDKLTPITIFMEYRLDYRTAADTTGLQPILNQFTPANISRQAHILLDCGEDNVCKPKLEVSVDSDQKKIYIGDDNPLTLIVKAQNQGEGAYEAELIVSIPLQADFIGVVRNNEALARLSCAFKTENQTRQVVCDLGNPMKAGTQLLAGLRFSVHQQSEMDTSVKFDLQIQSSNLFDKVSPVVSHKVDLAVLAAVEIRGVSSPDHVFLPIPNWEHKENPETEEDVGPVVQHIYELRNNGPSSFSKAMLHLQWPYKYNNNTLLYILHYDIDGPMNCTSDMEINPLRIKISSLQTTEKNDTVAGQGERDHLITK", "sequence (P06756 891-1048 limits assumed)": "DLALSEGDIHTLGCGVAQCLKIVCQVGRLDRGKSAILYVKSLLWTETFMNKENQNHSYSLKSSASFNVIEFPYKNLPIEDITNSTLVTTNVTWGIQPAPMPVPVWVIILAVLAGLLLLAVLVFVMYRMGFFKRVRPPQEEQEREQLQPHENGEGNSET", "sequence (P05106 27-788)": "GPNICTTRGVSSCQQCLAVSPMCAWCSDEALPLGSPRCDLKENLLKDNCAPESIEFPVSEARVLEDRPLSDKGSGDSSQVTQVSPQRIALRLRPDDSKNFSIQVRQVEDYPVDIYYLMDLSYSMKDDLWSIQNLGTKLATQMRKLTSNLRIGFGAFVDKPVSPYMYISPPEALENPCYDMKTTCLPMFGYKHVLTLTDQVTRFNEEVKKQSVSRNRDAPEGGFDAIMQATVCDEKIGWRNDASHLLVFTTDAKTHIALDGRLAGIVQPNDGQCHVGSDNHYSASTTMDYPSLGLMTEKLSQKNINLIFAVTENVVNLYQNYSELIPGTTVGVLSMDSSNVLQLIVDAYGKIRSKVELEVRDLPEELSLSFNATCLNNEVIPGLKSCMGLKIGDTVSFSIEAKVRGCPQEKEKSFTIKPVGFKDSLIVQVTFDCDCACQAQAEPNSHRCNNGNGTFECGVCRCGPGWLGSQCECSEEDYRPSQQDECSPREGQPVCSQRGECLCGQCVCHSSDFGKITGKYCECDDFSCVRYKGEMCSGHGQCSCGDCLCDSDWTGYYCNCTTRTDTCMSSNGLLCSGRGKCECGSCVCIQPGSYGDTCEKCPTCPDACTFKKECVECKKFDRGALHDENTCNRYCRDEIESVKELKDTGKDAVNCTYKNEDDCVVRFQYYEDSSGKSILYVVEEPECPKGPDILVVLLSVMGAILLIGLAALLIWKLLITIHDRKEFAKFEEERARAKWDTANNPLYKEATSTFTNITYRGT", "experiment": "Kistrin/Vitronectin Receptor (αvβ3) ELISA test", "type": "binding", "settings": "Kistrin-coated plates, 3 hours at ambient temperature, 4B12-HRP detection, read-out: K/VnR IC50", "description": "Pharmacological Test: Kistrin/Vitronectin Receptor (αvβ3) ELISA Test Protocol:\n96-well MaxiSorp plates are coated overnight at […] with 100 μl of Kistrin at 1 μg/ml (dilution in coating buffer: 0.05M carbonate)/NaOH pH 9.6. The next day, the wells are emptied and the ligands (kistrin) are then fixed (fixation buffers: PBS containing 0.5% BSA (pH=7.4)) for 1 hour at ambient temperature under gentle agitation of 125 rpm. The wells are washed six times (washing buffer: PBS containing 0.05% Tween 20 (pH 7.7) then the following is added per well and in this order:\n40 μl of incubation buffer\n10 μl of the dilution of the product to be tested (the products are diluted in a 50:50 DMSO/water mixture)\n50 μl of human αvβ3 receptor (cf Pytel et al. Methods Enzymol. (1987) 144 (Dilution in incubation buffer, adapted according to the batch of receptor and according to the ligand). The ligand, the αvβ3 receptor and the products to be studied are incubated for 3 hours at ambient temperature with gentle agitation of 125 rpm.\nThe wells are again washed six times, then incubated for 2 hours at ambient temperature with mild agitation of 125 rpm, in the presence of 100 μl of anti-receptor antibody coupled to a peroxidase (The 4B12-HRP antibody is diluted in incubation buffer (50 mM TRIS pH 7.4; 0.5% BSA; 0.05% Tween 20; 1 mM MnCl2; 50 μM CaCl2; 50 μM MgCl2; 100 mM NaCl). The dilution is to be adapted according to the batch of receptor.\nThe wells are then washed six times before measurement of the ligand-receptor bond is carried out using a peroxidase developer kit (TBM Microwell Peroxidase Substrate System Kirkegaard; Ref cat 50-76-00).\nThis kit contains a flask A of substrate (3,3′,5,5′-tetramethylebenzidine at 0.4 g/l) and a flask B (H2O2 to 0.02% in Citrate/Citric acid). Extemporaneously, one volume of A is mixed with one volume of B, then the reaction mixture is distributed at a rate of 100 μl/wells.\nThe enzymatic reaction develops between 6 to 10 minutes for Kistrin/αvβ3 then its development is stopped by the addition of 100 μl of 1M phosphoric acid. The optical density is determined at 450 nm.\nExpression of the Results\nThe following curve is plotted: the bond percentage as a function of the logarithm of each concentration of the tested product.\nFor each product IC50 is determined according to the following formula: IC50=(B0+Bmin)/2 B0=Maximum bond in the absence of any product Bmin=Minimum bond in the presence of the highest concentration of the product.", "units": {"IC50": "nM"}, "values": [
      {"smiles": "CC(CCc1ccc(OCCC(NC(=O)OCc2ccccc2)C(=O)O)cc1)=NNC1=NCCN1", "note": "(mixture of isomers) [ex 1, O-[4-[3-[(4,5-Dihydro-1H-imidazol-2-yl)hydrazono]butyl]-phenyl]-N-[(phenylmethoxy)carbonyl]-homoserine.]", "IC50": 150},
      {"smiles": "CC(CCc1ccc(OCCC(NC(=O)OCc2ccccc2)C(=O)O)cc1)=NNC(=N)N", "note": "(mixture of isomers) [ex 2, O-[4-[3-[(Aminoiminomethyl)hydrazono]butyl]phenyl]-N-[(phenylmethoxy)carbonyl]-homoserine]", "IC50": 1350},
      {"smiles": "N=C(N)NN=CCCc1ccc(OCCC(NC(=O)OCc2ccccc2)C(=O)O)cc1", "note": "(mixture of isomers) [ex 4, O-[4-[3-[(Aminoiminomethyl)hydrazono]propyl]phenyl]-N-[(phenylmethoxy)carbonyl]-homoserine]", "IC50": 450},
      {"smiles": "CC(Cc1ccc(OCCC(NC(=O)OCc2ccccc2)C(=O)O)cc1)=NNC1=NCCN1", "note": "(mixture of isomers) [ex 5]", "IC50": 22},
      {"smiles": "CC(CCc1cccc(OCCC(NC(=O)OCc2ccccc2)C(=O)O)c1)=NNC1=NCCN1", "note": "(mixture of isomers) [ex 9, O-[3-[3-[(4,5-Dihydro-1H-imidazol-2-yl)hydrazono]butyl]-phenyl]-N-[(phenylmethoxy)carbonyl]-homoserine]", "IC50": 2000},
      {"smiles": "CC(Cc1cccc(OCCC(NC(=O)OCc2ccccc2)C(=O)O)c1)=NNC1=NCCN1", "note": "(mixture of isomers) [ex 10, O-[3-[2-[(4,5-Dihydro-1H-imidazol-2-yl) hydrazono]propyl]-phenyl]-N-[(phenylmethoxy)carbonyl]-homoserine]", "IC50": 355},
      {"smiles": "N=C(N)NN=CCCc1cccc(OCCC(NC(=O)OCc2ccccc2)C(=O)O)c1", "note": "(mixture of isomers) [ex 11, O-[3-[3-[(Aminoiminomethyl)hydrazono]propyl]phenyl]-N-[(phenylmethoxy)carbonyl]-homoserine]", "IC50": 3250},
      {"smiles": "O=C(NC(CCOc1ccc(CC/C=N\\NC2=NCCN2)cc1)C(=O)O)OCc1ccccc1", "note": "(racemic) [ex 3, O-[4-[3-[(4,5-Dihydro-1H-imidazol-2-yl)hydrazono]propyl]-phenyl]-N-[(phenylmethoxy)carbonyl]-homoserine]", "IC50": 110},
      {"smiles": "COc1cc(C/C(C)=N/NC2=NCCN2)ccc1OCCC(NC(=O)OCc1ccccc1)C(=O)O", "note": "(racemic) [ex 6, O-[4-[2-[(4,5-Dihydro-1H-imidazol-2-yl)hydrazono]propyl]-2-methoxyphenyl]-N-[(phenylmethoxy)carbonyl]-homoserine]", "IC50": 12},
      {"smiles": "C/C(Cc1ccc(OCCC(NC(=O)OCc2ccccc2)C(=O)O)c(F)c1)=N\\NC1=NCCN1", "note": "(racemic) [ex 7, O-[4-[2-[(4,5-Dihydro-1H-imidazol-2-yl)hydrazono]propyl]-2-fluorophenyl]-N-[(phenylmethoxy)carbonyl]-homoserine]", "IC50": 22},
      {"smiles": "O=C(NC(CCOc1cccc(CC/C=N/NC2=NCCN2)c1)C(=O)O)OCc1ccccc1", "note": "(stereo not drawn) [ex 12, O-[3-[3-[(4,5-Dihydro-1H-imidazol-2-yl) hydrazono]propyl]-phenyl]-N-[(phenylmethoxy)carbonyl]-homoserine]", "IC50": 960},
      {"smiles": "O=C(NC(CCOc1ccc(/C=N/NC2=NCCN2)cc1)C(=O)O)OCc1ccccc1", "note": "(stereo not drawn) [ex 13]", "IC50": 292}
    ]}
  ]
}
